Literature values as cited in patent US20010037025A1, “New compounds, their preparation and use” (priority 1998, published 2001).

Tested on: RAR
Conditions: literature statement, Heyman et al. Cell 1992

In the case of `CC1=C(/C=C/C(C)=C/C=C/C(C)=C/C(=O)O)C(C)(C)CCC1` [all-trans RA], the “activation of / selectivity for RAR” value is given as “displays selectivity for RAR”.
